Source: patent publication US11484579B2, “Vitamins and alpha keto acid compositions for use in a treatment program for chronic kidney disease patients” (priority 2017, dated 2022)

Assay: Certificate of analysis: solubility
Assay type: physicochemical
Conditions: batch SCP-PAMA-03; specification: Soluble in water

## O=C(Cc1ccccc1)C(=O)[O][Mg][O]C(=O)C(=O)Cc1ccccc1 [Alpha keto phenylalanine magnesium]
  Solubility: Soluble in water
